The structures appear in SMILES notation.

Common to all, as to assay: Postemergence herbicidal activity, greenhouse, visual injury
Common to all, as to format: in vivo

Experiment [1] concerns barnyardgrass (Echinochloa crus-galli, ECHCG). To be noted: post-emergence, read-out: Effect (% visual injury) Obs. On the procedure:
(§1) The plants were grown for 7-36 days (d) in a greenhouse with an approximate 14-hour (h) photoperiod which was maintained at about 23° C. during the day and 22° C. during the night. Nutrients and water were added on a regular basis and supplemental lighting was provided with overhead metal halide 1000-Watt lamps as necessary. The plants were employed for testing when they reached the second or third true leaf stage.
(§2) Spray solutions of the experimental compound mixtures were prepared by adding the stock solutions to the appropriate amount of dilution solution to form a 12 mL spray solution in two-way combinations. […] Control plants were sprayed in the same manner with the solvent blank. Application rates for component (a) are in g ae/ha, and application rates for component (b) are in g ai/ha.
(§3) The treated plants and control plants were placed in a greenhouse as described above and watered by sub-irrigation to prevent wash-off of the test compounds. After 20-22 d, the condition of the test plants as compared with that of the control plants was determined visually and scored on a scale of 0 to 100 percent where 0 corresponds to no injury and 100 corresponds to complete kill. […] The Colby method was used to determine the herbicidal effects expected from the mixtures.

In experiment [2] the test system is blackgrass (Alopecurus myosuroides, ALOMY). The settings on record: post-emergence, read-out: Effect (% visual injury) Obs. On the procedure: as §1, §2, §3
For experiment [3], the system named is common lambsquarters (Chenopodium album L., CHEAL). The settings on record: post-emergence, read-out: Effect (% visual injury) Obs. As for the experimental part: as §1, §2, §3
The test system of experiment [4] is giant foxtail (Setaria faberi, SETFA). To be noted: post-emergence, read-out: Effect (% visual injury) Obs. As for the experimental part: as §1, §2, §3
The subject of experiment [5] is grain sorghum (Sorghum vulgare, SORVU). To be noted: post-emergence, read-out: Effect (% visual injury) Obs. On the procedure: as §1, §2, §3
Experiment [6] concerns large crabgrass (Digitaria sanguinalis, DIGSA). The settings on record: post-emergence, read-out: Effect (% visual injury) Obs. On the procedure:
as §1, §2, §3

A further experiment concerns maize (Zea mays, ZEAMX). The settings on record: post-emergence, read-out: Effect (% visual injury) Obs. As for the experimental part: as §1, §2, §3
Experiment [7] relates to pigweed (Amaranthus retroflexus, AMARE). The settings on record: post-emergence, read-out: Effect (% visual injury) Obs. On the procedure: as §1, §2, §3
For experiment [8], the system named is rice (Oryza sativa, ORYSA). To be noted: post-emergence, read-out: Effect (% visual injury) Obs. As for the experimental part:
as §1, §2, §3

Experiment [9] deals with soybean (Glycine max, GLXMA). To be noted: post-emergence, read-out: Effect (% visual injury) Obs. As for the experimental part: as §1, §2, §3
Experiment [10] concerns sunflower (Helianthus annuus, HELAN). To be noted: post-emergence, read-out: Effect (% visual injury) Obs. On the procedure:
as §1, §2, §3

Experiment [11] concerns velvetleaf (Abutilon theophrasti, ABUTH). To be noted: post-emergence, read-out: Effect (% visual injury) Obs. On the procedure:
as §1, §2, §3

The test system of experiment [12] is wild buckwheat (Polygonum convolvulus, POLCO). The settings on record: Fallopia convolvulus, post-emergence, read-out: Effect (% visual injury) Obs. On the procedure: as §1, §2, §3
Experiment [13] concerns wild oat (Avena fatua, AVEFA). The settings on record: post-emergence, read-out: Effect (% visual injury) Obs. On the procedure:
as §1, §2, §3

In experiment [14] the test system is wild pansy (Viola tricolor, VIOTR). The settings on record: post-emergence, read-out: Effect (% visual injury) Obs. On the procedure: as §1, §2, §3
Experiment [15] has as its system winter wheat (Triticum aestivum, TRZAW). To be noted: post-emergence, read-out: Effect (% visual injury) Obs. On the procedure: as §1, §2, §3
Experiment [16] relates to chickweed (Stellaria media, STEME). To be noted: post-emergence, read-out: Effect (% visual injury) Obs. As for the experimental part:
(§4) Seeds of the desired test plant species were planted in Sun Gro MetroMix® 306 planting mixture, which typically has a pH of 6.0 to 6.8 and an organic matter content of about 30 percent, in plastic pots with a surface area of 103.2 square centimeters (cm^2). When required to ensure good germination and healthy plants, a fungicide treatment and/or other chemical or physical treatment was applied. The plants were grown for 7-36 days (d) in a greenhouse with an approximate 14-hour (h) photoperiod which was maintained at about 23° C. during the day and 22° C. during the night. Nutrients and water were added on a regular basis and supplemental lighting was provided with overhead metal halide 1000-Watt lamps as necessary. The plants were employed for testing when they reached the second or third true leaf stage.
(§5) An emulsifiable concentrate (EC) formulation containing Compound 1 at 100 gai/L was prepared by combining Compound 1 with 1-butyl-2-pyrrolidinone (Tamisolve NxG; 360.5 g/L), benzyl acetate (544.6 g/L) and Agnique MBL 520L surfactant (52.9 g/L). […] The concentrated stock solution was diluted with an aqueous mixture of 1.5% v/v of Agri-dex crop oil concentrate to provide the appropriate application rates. Compound requirements are based upon a 12 milliliter (mL) application volume at a rate of 187 liters per hectare (L/ha). Spray solutions of the experimental compound mixtures were prepared by adding the stock solutions to the appropriate amount of dilution solution to form a 12 mL spray solution in two-way combinations. Formulated compounds were applied to the plant material with an overhead Mandel track sprayer equipped with 8002E nozzles calibrated to deliver 187 L/ha over an application area of 0.503 square meters (m^2) at a spray height of 18 inches (43 centimeters (cm)) above average plant canopy. Control plants were sprayed in the same manner with the solvent blank. Application rates for component (a) are in g ae/ha, and application rates for component (b) are in g ai/ha.
as §3

In experiment [17] the test system is kochia (Kochia scoparia, KCHSC). On the procedure:
as §4, §5, §3

In experiment [18] the test system is poinsettia (Euphorbia heterophylla, EPHHL). As for the experimental part:
as §4, §5, §3

The subject of experiment [19] is winter rape (Brassica napus, BRSNW). To be noted: post-emergence, read-out: Effect (% visual injury) Obs. As for the experimental part:
as §4, §5, §3

Experiment [20] deals with ivyleaf morningglory (Ipomoea hederacea, IPOHE). The settings on record: Clodinafop-propargyl 30 g ai/ha. On the procedure: as §4, §5, §3
[21] abbreviates: Clodinafop-propargyl 30 g ai/ha.

On to `CCCC(=NOCC)C1=C(O)CC(CC(C)SCC)CC1=O` (racemic) [Sethoxydim, (±)-(EZ)-2-(1-ethoxyiminobutyl)-5-[2-(ethylthio)propyl]-3-hydroxycyclohex-2-enone], for which the pest or weed control at 140 g/ha came to 50% in [1]; 95% in experiment [2]; 5% in experiment [3]; 85% in [4]; 60% in experiment [6]; 0% in experiment [7]. Besides, the pest or weed control at 140 g/ha was 0% in experiment [11]; 0% in experiment [12]; 85% in [13]; 5% in experiment [14]; 10% in experiment [16]. For the same molecule, the plant injury at 140 g/ha stood at 100% in experiment [5]; 75% in the experiment on maize (Zea mays, ZEAMX); 75% in experiment [8]; 0% in experiment [9]; 0% in experiment [10]; 60% in experiment [15]. The plant injury at 140 g/ha in experiment [19] stood at 0%. The “Effect (% visual injury) Obs” value is 0% in experiment [17] (Sethoxydim 140 g ai/ha) and 10% in experiment [18] (Sethoxydim 140 g ai/ha).

Take `CCSC(C)CC1CC(=O)C(C(CC)=NOC/C=C/Cl)=C(O)C1` (stereo not drawn) [Clethodim]: the pest or weed control at 70 g/ha is 100% in [1]; 93% in experiment [2]; 5% in experiment [3]; 85% in experiment [4]; 70% in [6]; 5% in [7]. The pest or weed control at 70 g/ha stood at 0% in [11]; 10% in [12]; 97% in experiment [13]; 5% in experiment [14]; 10% in [16]. The plant injury at 70 g/ha was 100% in the experiment on maize (Zea mays, ZEAMX); 90% in experiment [8]; 10% in experiment [9]; 0% in [10]; 70% in experiment [15]; 5% in [19]. Further, the “Effect (% visual injury) Obs” value in [17] (Clethodim 70 g ai/ha) turned out to be 0%; in experiment [18] (Clethodim 70 g ai/ha), 30%.

`C#CCOC(=O)[C@@H](C)Oc1ccc(Oc2ncc(Cl)cc2F)cc1` [Clodinafop-propargyl, prop-2-ynyl (R)-2-[4-(5-chloro-3-fluoro-2-pyridyloxy)phenoxy]propionate]: the pest or weed control in experiment [1] (setting [21]) came to 100%; in experiment [2] (setting [21]), 10%; in experiment [4] (setting [21]) it was 98%; in experiment [6] (setting [21]) it was 95%; in experiment [7] (setting [21]), 0%; in experiment [11] (setting [21]) it was 0%. Moreover, the pest or weed control was 0% in experiment [12] (setting [21]) and 90% in [13] (setting [21]). Besides, the plant injury in experiment [5] (setting [21]) stood at 100%; with maize (Zea mays, ZEAMX) (setting [21]), 100%; in experiment [8] (setting [21]), 90%; in experiment [9] (setting [21]), 0%; in experiment [10] (setting [21]) it was 0%; in experiment [15] (setting [21]), 0%. Further, in [16] (setting [21]), the pest or weed control at 30 g/ha stood at 0%. Moreover, the “Effect (% visual injury) Obs” value in [20] came to 0%. Further, the plant injury at 30 g/ha in experiment [19] (setting [21]) amounted to 0%.

Regarding `CCCCOC(=O)[C@@H](C)Oc1ccc(Oc2ccc(C(F)(F)F)cn2)cc1` [Fluazifop-butyl], the pest or weed control at 105 g/ha is 100% in experiment [1]; 20% in [2]; 97% in [4]; 95% in experiment [6]; 0% in experiment [7]; 0% in experiment [11]. Further, the pest or weed control at 105 g/ha in experiment [12] came to 0%; in [13], 95%; in experiment [14] it was 0%; in [16], 0%. The plant injury at 105 g/ha in the experiment with maize (Zea mays, ZEAMX) was found to be 100%; in [8], 85%; in experiment [15], 90%; in experiment [19] it was 0%. Moreover, the “Effect (% visual injury) Obs” value in experiment [18] (Fluazifop-butyl 105 g ai/ha) was determined as 0%.

`COC(=O)[C@@H](C)Oc1ccc(Oc2ncc(C(F)(F)F)cc2Cl)cc1` [Haloxyfop-P-methyl]: the pest or weed control at 70 g/ha was found to be 100% in [1]; 97% in experiment [2]; 0% in experiment [3]; 100% in experiment [6]; 0% in experiment [7]; 0% in experiment [11]. In addition, the pest or weed control at 70 g/ha in experiment [12], in [14] and in [16] was 0% in each case. In addition, the plant injury at 70 g/ha turned out to be 100% in [5]; 100% with maize (Zea mays, ZEAMX); 100% in experiment [8]; 0% in [9]; 0% in [10]; 100% in experiment [15]. The plant injury at 70 g/ha in experiment [19] stood at 0%. In experiment [18] (Haloxyfop-P-methyl 70 g ai/ha), the “Effect (% visual injury) Obs” value turned out to be 0%.

In the case of `CCON=C(CC)C1=C(O)CC(c2c(C)cc(C)cc2C)CC1=O` (stereo not drawn) [Tralkoxydim, 2-[1-(ethoxyimino)propyl]-3-hydroxy-5-mesitylcyclohex-2-enone], the pest or weed control at 200 g/ha was 30% in experiment [1]; 5% in experiment [3]; 0% in experiment [4]; 50% in [6]; 0% in experiment [7]; 0% in [11]. In addition, the pest or weed control at 200 g/ha in experiment [12] came out at 0%; in experiment [13], 100%; in experiment [14], 5%; in experiment [16], 10%. For the same molecule, the plant injury at 200 g/ha in experiment [5] worked out at 60%; in the experiment on maize (Zea mays, ZEAMX), 100%; in [8], 75%; in experiment [9] it was 0%; in experiment [19] it was 0%. Besides, the “Effect (% visual injury) Obs” value in experiment [17] (Tralkoxydim 200 g ai/ha) and in experiment [18] (Tralkoxydim 200 g ai/ha) was 0% each time.

For the origin of these results see patent US20210145000A1, “WEED CONTROL FROM APPLICATIONS OF PYRIDINE CARBOXYLIC ACID HERBICIDES AND ACETYL CoA CARBOXYLASE (ACCase) INHIBITORS” (Dow AgroSciences LLC, priority 2018, published 2021).
